Results as given in a melting point compilation (Tetko et al.; mined from patent text by program, amines drawn as free bases though some values may be those of a salt).

SMILES	melting point [°C]
Cc1nc(CN(C)C)n2c1CN=C(c1ccccc1Cl)c1cc(Cl)ccc1-2	185 to 186
C[C@@H](CN1CCc2ccc3c(c21)CCS3)NC(=O)OC(C)(C)C	170 to 172
N#Cc1ccc(Oc2ccccc2)cc1C#N	98 to 100
C=CC(=O)NCc1c(-c2ccccc2)n[nH]c1C	191 to 193
CCCCC(C(=O)O)n1cncn1 (stereo not drawn)	141 to 143
Cc1nc(Sc2ncccc2C(F)(F)F)sc1CC(=O)O	195 to 196
N#Cc1c(Cl)c2cc(F)cnc2[nH]c1=O	272
O=C(O)c1cc2cc(F)c(F)cc2[nH]1	279 to 280
CCOc1c(NCc2ccc(Br)cc2CC)c(=O)c1=O	217 to 224
CN1C(=O)C(NC(=O)CCc2ccc(Cl)cc2Cl)N=C(c2ccccc2)c2ccncc21 (stereo not drawn)	220 to 221
CCCCCCCCc1nc2c(N)nc3ccccc3c2n1CCOCC#Cc1ccccc1	138 to 139
CCOc1ncc(N)cc1C(=O)O	260 to 262
CCCCN1C(=O)NC(=Cc2cccs2)C1=O	140
CC(=O)Nc1ccc(N2N=C(C)CC2=O)cc1	230
NCC(O)COCCCCCCCCc1ccccc1 (stereo not drawn)	50 to 54
O=C(CC(=O)C(F)(F)F)Nc1cc(-c2cccs2)n[nH]1	259 to 261
Fc1ccc(C(Cl)(Cn2cncn2)C2(n3cncn3)CC2)cc1 (stereo not drawn)	81 to 84
CN1C(=O)C(NC(=O)Nc2cccc(Br)c2)N(C)C1=O (stereo not drawn)	173 to 182

SMILES	melting point [°C]
COC(=O)C(OC)C(=O)Nc1cc(Cl)cc(Cl)c1 (stereo not drawn)	116 to 118
CN(C)Cc1ccc([C@H]2CC[C@H](O)CC2)cc1	63 to 65
O=C(C1CCNCC1)N1CCN(c2cccc3[nH]ccc23)CC1	> 240
CCNC(=O)NCCCNn1c(COCC)nc2c(N)nc3c(c21)CCCC3	189 to 191
C=C(C)c1cnc(C2=NC(C)(C(C)C)C(=O)N2)c(C(=O)OC)c1 (stereo not drawn)	90.5 to 92.5
CCOC(=O)c1[nH]nnc1Nc1ccccc1	129 to 130
CCOc1cccc(F)c1C1OC(=O)NC1=O (stereo not drawn)	127 to 128
CC1NC(=O)c2ccccc2O1 (stereo not drawn)	124 to 126
Brc1nnc2n1C=Cc1ccccc1C2	169 to 170
CCSC1CN2CCC1CC2 (stereo not drawn)	101 to 102
CC(C)(C)OC(=O)NO[C@H]1CC=C[C@H]1NC(=O)OCC(Cl)(Cl)Cl	83 to 84
C=Cc1ccc(C#N)cn1	29 to 30
CNS(=O)(=O)c1ccc(C)cc1C(=O)O	140 to 141
Cc1ccc(OCc2c(F)cccc2F)c(N)n1	121 to 123
COc1cc(C=O)cc2c(N(C)C)cc(C)nc12	127 to 129
O=C1CCN(C(=O)c2cccs2)CC1	81 to 83
Nc1cc(-n2ccnc2)c(F)cc1[N+](=O)[O-]	122 to 123

The remaining lines, values ahead:

melting point [°C]	SMILES
158 to 160	CCOC(=O)c1cc(-c2ccc(N)cc2)n(-c2ccc(F)cc2)n1
190 to 192	O=C(O)CCn1c(=O)c(=O)[nH]c2cc(C(F)(F)F)c(-n3cccc3)cc21
223 to 225	Cc1nc(-n2cc(C(=O)Nc3ccccc3)ccc2=O)sc1C(=O)NCc1ccccc1
70	O=C(O)c1ccc(OCCNC(=O)C2Cc3ccccc3N2S(=O)(=O)c2ccc(-c3ccc(F)cc3OC(F)F)cc2)cc1 (stereo not drawn)
140 to 141	COc1cc(OC)cc(N2CCN(C(=O)Nc3nc4ccccc4nc3OC)CC2)c1
62 to 64	Cc1ccc2oc3ccc(C)cc3c2c1
341 to 344	O=C1Nc2cc(Cl)ccc2C(=O)C1c1ccsc1 (stereo not drawn)
92.5 to 102	COC(=O)c1ccccc1Nc1ccccc1
129 to 130	COCOc1ccccc1-c1cc(-c2cccc(C(=O)OC)c2)c(C#N)c(N)n1
185 to 186	CC(C)(C)c1ccc2c(c1)C=C(C(=O)O)CC2
173 to 174	Cc1c(C(N)=O)c2ccccc2n2c(N3CCCC3)nc(-c3noc(C(C)C)n3)c12
102 to 103	CCCCCN1CCN(c2nc(C)c(C(=O)NCc3cccnc3)s2)C1=O
151 to 154	CCn1c2ccc(C(=O)c3ccc(-n4c5ccccc5c5ccccc54)cc3)cc2c2cc(C(C)=NO)ccc21
72 to 75	Cc1cc(Cn2cnc3c2CC(C(=O)O)N(C(=O)C(c2ccccc2)c2ccccc2)C3)ccc1N(C)C (stereo not drawn)
192 to 193	COCOc1ccc(Cl)cc1-c1cc(-c2cccc([N+](=O)[O-])c2)c(C#N)c(N)n1
282 to 284	O=[N+]([O-])c1cnc2ccc(O)cc2c1-c1ccccc1
210 to 212	Oc1cc(C(F)(F)F)ccc1-c1cc(Oc2ccc3cccnc3c2)ncn1
126 to 128	COc1ccc2c(c1)C(CCNC(=O)C(F)(F)F)=C(Cc1ccccc1)C2
189 to 190	Cn1nc(-c2sc(C(=O)NCc3ccccn3)nc2-c2ccccc2)ccc1=O

melting point [°C]	SMILES
130	CC(=O)ON=C(N)c1cccc(C(=O)N2CCN(C(=O)[C@@H]3CCCN3S(=O)(=O)c3ccc(Cl)c(COc4cccc5c(C)cc(C)nc45)c3Cl)CC2)c1
87 to 88	O=C(OCCOc1ccc(OCCO)cc1)c1ccc(O)c(Cl)c1
113 to 114	CC1(C)CCC(Cc2ccc(Cl)cc2)C1(O)COS(C)(=O)=O (stereo not drawn)
103 to 106	CCOC(=O)OC1=C(c2cc(C)ccc2C)C(=O)NC1CC1CCS(=O)CC1 (stereo not drawn)
53 to 55	CCCc1c(OCCCOc2ccc3c(c2CCC)OC(C)(CCC(=O)OC)CC3)ccc(C(C)=O)c1O (stereo not drawn)
169 to 170	CC(=O)c1cc(NS(C)(=O)=O)c(Sc2ccc(F)cc2F)cc1[N+](=O)[O-]
207 to 209	COc1ccc(CN(Cc2ccc(OC)cc2)c2nc(-c3ccccc3)c(-c3ccc(=O)n(C(C)C)n3)nc2C#N)cc1
124	CCOC(=O)c1ccc(/C=C(\C)c2ccc(O)c(C3(C)CCCCC3)c2)cc1
110 to 111	COc1ccc(NC(=O)C(C)(C)CCCOc2cc(C)ccc2C)cc1OC
186 to 188	CC(=O)OCC1OC(n2cc(Cc3ccc4occc4c3)c3c(Cl)cccc32)C(OC(C)=O)C(OC(C)=O)C1OC(C)=O (stereo not drawn)
122 to 128	COC(=O)c1[nH]c2c(OCc3ccccc3)cc([N+](=O)[O-])c(CCCl)c2c1C(=O)OC
188 to 191	COc1cc2oc(=O)c(CCOS(C)(=O)=O)c(C)c2cc1OC
256	CC(=O)N1CCN(CCn2c3ccccc3c(=NN=C3NCCS3)c3ccccc32)CC1
188 to 190	CCCCCCCc1ccc(NS(=O)(=O)c2ccc(N3CCNC3=O)cc2)cc1
189 to 190	O=c1c(CCCCCc2ccncc2)cc2cccnc2n1-c1cccc([N+](=O)[O-])c1
138 to 139	CC(=O)c1cccc(N2CCN(CCCCOc3ccc4c(n3)NC(=O)CC4)CC2)c1Cl
173 to 175	CCCCCN1C(=O)C2(COc3cc4c(cc32)OCO4)c2c(C(=O)Nc3cccc(OC)c3)cccc21 (stereo not drawn)
168 to 169	CC(C)(C)OC(=O)NCCc1ccnc(-c2nc(=O)c3ccc(Cl)cc3s2)c1
194 to 195	Nc1cc(-c2ccoc2)ccc1Nc1cccc(-n2cccc2)c1
